In patent US12655116B2, “Substituted isophthalic acid diamides” (Bayer Aktiengesellschaft, priority 2020, dated 2026):

Key:
[1] = test system: STEME; assay: Post-emergence herbicidal action against STEME; format: in vivo, Stellaria media; conditions: Stellaria media, 504 h
Method in brief: (§1)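 Herbicidal action is a visual percentage rating (0% = as untreated control, 100% = plants dead) made roughly 3 weeks after treatment. Plants were grown in sandy loam in the greenhouse and treated at the one-leaf stage, 2 to 3 weeks post-sowing. Treatment was a foliar spray of wettable-powder or emulsion-concentrate formulations at 600 to 800 l/ha water plus 0.2% wetting agent.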

[2] = test system: DIGSA; assay: Post-emergence herbicidal action against DIGSA; format: in vivo, Digitaria sanguinalis; conditions: Digitaria sanguinalis, 504 h
Method in brief: as §1

[3] = test system: AMARE; assay: Post-emergence herbicidal action against AMARE; format: in vivo, Amaranthus retroflexus; conditions: Amaranthus retroflexus, 504 h, visual assessment about 3 weeks after treatment, 100% = plants have died, 0% = like control plants
Method in brief: as §1

[4] = test system: ECHCG; assay: Post-emergence herbicidal action against ECHCG; format: in vivo, Echinochloa crus-galli; conditions: Echinochloa crus-galli, 504 h; for pest or weed control at 20 g/ha: dosage 20 g/ha
Method in brief: as §1

[5] = test system: SETVI; assay: Pre-emergence herbicidal action against SETVI; format: in vivo, Setaria viridis; conditions: Setaria viridis, 504 h; for pest or weed control at 80 g/ha: dosage 80 g/ha
Method in brief: (§2)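 Sandy loam pots, seeds covered with soil, then surface-treated with WP or EC formulations at 600–800 l/ha water plus 0.2% wetting agent. Greenhouse, 3 weeks. Percent damage vs untreated controls.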

[6] = test system: VERPE; assay: Post-emergence herbicidal action against VERPE; format: in vivo, Veronica persica; conditions: Veronica persica, 504 h
Method in brief: as §1

[7] = test system: AMARE; assay: Pre-emergence herbicidal action against AMARE; format: in vivo, Amaranthus retroflexus; conditions: Amaranthus retroflexus, 504 h, 100% = plants have died, 0% = like control plants
Method in brief: as §2

[8] = test system: MATIN; assay: Pre-emergence herbicidal action against MATIN; format: in vivo, Matricaria inodora; conditions: Tripleurospermum inodorum, 504 h; for pest or weed control at 80 g/ha: dosage 80 g/ha
Method in brief: as §2

[9] = test system: ECHCG; assay: Pre-emergence herbicidal action against ECHCG; format: in vivo, Echinochloa crus-galli; conditions: Echinochloa crus-galli, 504 h
Method in brief: as §2

[10] = test system: VIOTR; assay: Pre-emergence herbicidal action against VIOTR; format: in vivo, Viola tricolor; conditions: Viola tricolor, 504 h; for pest or weed control at 80 g/ha: dosage 80 g/ha
Method in brief: as §2

[11] = test system: ABUTH; assay: Pre-emergence herbicidal action against ABUTH; format: in vivo, Abutilon theophrasti; conditions: Abutilon theophrasti, 504 h; for pest or weed control at 80 g/ha: scored visually after 3 weeks vs untreated controls (100% = plants have died, 0% = like control plants)
Method in brief: as §2

[12] = test system: ALOMY; assay: Pre-emergence herbicidal action against ALOMY; format: in vivo, Alopecurus myosuroides; conditions: Alopecurus myosuroides, pre-emergence, 504 h
Method in brief: as §2

[13] = test system: VIOTR; assay: Post-emergence herbicidal action against VIOTR; format: in vivo, Viola tricolor; conditions: Viola tricolor, 504 h
Method in brief: as §1

[14] = test system: DIGSA; assay: Pre-emergence herbicidal action against DIGSA; format: in vivo, Digitaria sanguinalis; conditions: Digitaria sanguinalis, 504 h; for pest or weed control at 80 g/ha: dosage 80 g/ha
Method in brief: as §2

[15] = test system: STEME; assay: Pre-emergence herbicidal action against STEME; format: in vivo, Stellaria media; conditions: Stellaria media, 504 h; for pest or weed control at 80 g/ha: dosage 80 g/ha
Method in brief: as §2

[16] = test system: ALOMY; assay: Post-emergence herbicidal action against ALOMY; format: in vivo, Alopecurus myosuroides; conditions: Alopecurus myosuroides, 504 h, visual assessment about 3 weeks after treatment vs untreated controls; for pest or weed control at 20 g/ha: dosage 20 g/ha
Method in brief: as §1

[17] = test system: HORMU; assay: Pre-emergence herbicidal action against HORMU; format: in vivo, Hordeum murinum; conditions: Hordeum murinum, 504 h; 320 g/ha, pre-emergence
Method in brief: as §2

[18] = test system: MATIN; assay: Post-emergence herbicidal action against MATIN; format: in vivo, Matricaria inodora; conditions: Tripleurospermum inodorum, 504 h; for pest or weed control at 20 g/ha: dosage 20 g/ha
Method in brief: as §1

[19] = test system: AVEFA; assay: Pre-emergence herbicidal action against AVEFA; format: in vivo, Avena fatua; conditions: Avena fatua, 504 h, pre-emergence
Method in brief: as §2

[20] = test system: VERPE; assay: Pre-emergence herbicidal action against VERPE; format: in vivo, Veronica persica; conditions: Veronica persica, 504 h
Method in brief: as §2

[21] = test system: PHBPU; assay: Post-emergence herbicidal action against PHBPU; format: in vivo, Pharbitis purpurea; conditions: Ipomoea purpurea, 504 h
Method in brief: as §1

[22] = test system: ABUTH; assay: Post-emergence herbicidal action against ABUTH; format: in vivo, Abutilon theophrasti; conditions: Abutilon theophrasti, 504 h, visual assessment about 3 weeks after treatment vs untreated controls; for pest or weed control at 20 g/ha: dosage 20 g/ha
Method in brief: as §1

[23] = test system: HORMU; assay: Post-emergence herbicidal action against HORMU; format: in vivo, Hordeum murinum; conditions: Hordeum murinum, 504 h; for pest or weed control at 20 g/ha: dosage 20 g/ha
Method: Seeds of monocotyledonous and dicotyledonous weed and crop plants are laid out in sandy loam soil in wood-fiber pots, covered with soil and cultivated in a greenhouse under good growth conditions. 2 to 3 weeks after sowing, the test plants are treated at the one-leaf stage. The compounds of the invention, formulated in the form of wettable powders (WP) or as emulsion concentrates (EC), are then sprayed onto the green parts of the plants in the form of an aqueous suspension or emulsion at a water application rate equivalent to 600 to 800 l/ha, with addition of 0.2% wetting agent. After the test plants have been left to stand in the greenhouse under optimal growth conditions for about 3 weeks, the action of the preparations is assessed visually in comparison to untreated controls (herbicidal action in percent (%): 100% activity=the plants have died, 0% activity=like control plants). […] The tables below illustrate, in an illustrative manner, the post-emergence herbicidal action of the compounds of the invention, the herbicidal activity being stated in percent.

[24] = test system: AVEFA; assay: Post-emergence herbicidal action against AVEFA; format: in vivo, Avena fatua; conditions: Avena fatua, 504 h, visual assessment about 3 weeks after treatment, 100% = plants have died, 0% = like control plants
Method in brief: as §1

[25] = test system: SETVI; assay: Post-emergence herbicidal action against SETVI; format: in vivo, Setaria viridis; conditions: Setaria viridis, 504 h
Method in brief: as §1

[26] = test system: LOLRI; assay: Pre-emergence herbicidal action against LOLRI; format: in vivo, Lolium rigidum; conditions: Lolium rigidum, 504 h, 80 g/ha
Method in brief: as §2

[27] = test system: PHBPU; assay: Pre-emergence herbicidal action against PHBPU; format: in vivo, Pharbitis purpurea; conditions: Ipomoea purpurea, 504 h, dosage 80 g/ha
Method in brief: as §2

[28] = test system: POLCO; assay: Pre-emergence herbicidal action against POLCO; format: in vivo, Polygonum convolvulus; conditions: Fallopia convolvulus, 504 h, dosage 80 g/ha
Method in brief: as §2

[29] = scored visually after 3 weeks vs untreated controls
[30] = 320 g/ha, scored visually after 3 weeks, 100% = plants have died, 0% = like control plants

CCNC(=O)c1c(C(F)(F)F)ccc(C(=O)Nc2nnc(C)o2)c1Cl [Example 6-117] gave a pest or weed control at 20 g/ha [1] of 90%, a pest or weed control at 80 g/ha ([1]; 80 g/ha) of 90% and a pest or weed control at 20 g/ha [2] of 80%. For the same compound, the pest or weed control at 80 g/ha ([2]; 80 g/ha) was 90%, the pest or weed control at 80 g/ha ([3]; 80 g/ha) was 80% and the pest or weed control at 20 g/ha [4] was 80%. It also gave a pest or weed control at 80 g/ha ([4]; dosage 80 g/ha) of 80%, a pest or weed control at 80 g/ha [5] of 100% and a pest or weed control at 320 g/ha ([5]; dosage 320 g/ha) of 100%. For the same compound, the pest or weed control at 80 g/ha ([6]; 80 g/ha) was 80%, the pest or weed control at 80 g/ha [7, 29] was 100% and the pest or weed control at 320 g/ha ([7]; 320 g/ha, scored visually after 3 weeks) was 100%. It also gave a pest or weed control at 80 g/ha [8] of 100%, a pest or weed control at 320 g/ha ([8]; dosage 320 g/ha) of 100% and a pest or weed control at 80 g/ha [9] of 90%. It also gave a pest or weed control at 320 g/ha ([9]; 320 g/ha) of 100%, a pest or weed control at 80 g/ha [10] of 80% and a pest or weed control at 320 g/ha ([10]; dosage 320 g/ha) of 100%. It also gave a pest or weed control at 80 g/ha [11] of 100%, a pest or weed control at 320 g/ha ([11]; Dosage: 320 g/ha, scored visually after 3 weeks, 100% = plants have died, 0% = like control plants) of 100% and a pest or weed control at 320 g/ha [12, 30] of 90%. It also gave a pest or weed control at 80 g/ha ([13]; 80 g/ha) of 80%, a pest or weed control at 80 g/ha [14] of 100% and a pest or weed control at 320 g/ha ([14]; dosage 320 g/ha) of 100%. The pest or weed control at 80 g/ha [15] was 100%, the pest or weed control at 320 g/ha ([15]; dosage 320 g/ha) was 100% and the pest or weed control at 20 g/ha [16] was 80%. It also gave a pest or weed control at 80 g/ha ([16]; dosage 80 g/ha) of 90%, a pest or weed control at 320 g/ha [17] of 100% and a pest or weed control at 20 g/ha [18] of 90%. The pest or weed control at 80 g/ha ([18]; dosage 80 g/ha) was 90%, the pest or weed control at 80 g/ha [19] was 100% and the pest or weed control at 320 g/ha [19, 30] was 100%. The pest or weed control at 320 g/ha ([20]; dosage 320 g/ha) was 90%, the pest or weed control at 80 g/ha ([21]; dosage 80 g/ha) was 80% and the pest or weed control at 20 g/ha [22] was 80%. For the same compound, the pest or weed control at 80 g/ha ([22]; dosage 80 g/ha) was 80%, the pest or weed control at 20 g/ha [23] was 80% and the pest or weed control at 80 g/ha ([23]; dosage 80 g/ha) was 90%. For the same compound, the pest or weed control at 80 g/ha ([24]; 80 g/ha) was 90%.
CNC(=O)c1c(C(F)F)ccc(C(=O)Nc2nnnn2C)c1SC [Example 1-87] was tested, and the pest or weed control at 20 g/ha [1] was 100%, the pest or weed control at 5 g/ha ([1]; dosage 5 g/ha) was 80% and the pest or weed control at 5 g/ha ([25]; dosage 5 g/ha) was 80%. It also gave a pest or weed control at 20 g/ha ([25]; dosage 20 g/ha) of 90%, a pest or weed control at 5 g/ha ([2]; 5 g/ha) of 100% and a pest or weed control at 20 g/ha [2] of 100%. The pest or weed control at 20 g/ha ([3]; 20 g/ha) was 100%, the pest or weed control at 5 g/ha ([4]; dosage 5 g/ha) was 80% and the pest or weed control at 20 g/ha [4] was 80%. It also gave a pest or weed control at 80 g/ha [5] of 100%, a pest or weed control at 5 g/ha ([6]; 5 g/ha) of 80% and a pest or weed control at 20 g/ha ([6]; 20 g/ha) of 90%. For the same compound, the pest or weed control at 20 g/ha ([7]; 20 g/ha, scored visually after 3 weeks vs untreated controls) was 90%, the pest or weed control at 80 g/ha [7, 29] was 100% and the pest or weed control at 20 g/ha ([8]; dosage 20 g/ha) was 80%. The pest or weed control at 80 g/ha [8] was 90%, the pest or weed control at 80 g/ha [9] was 100% and the pest or weed control at 20 g/ha ([10]; dosage 20 g/ha) was 80%. The pest or weed control at 80 g/ha [10] was 100%, the pest or weed control at 80 g/ha [11] was 100% and the pest or weed control at 20 g/ha ([11]; dosage 20 g/ha, scored visually after 3 weeks vs untreated controls, 100% = plants have died, 0% = like control plants, read-out: Pre-emergence action against ABUTH (herbicidal activity in percent)) was 100%. It also gave a pest or weed control at 80 g/ha ([12]; 80 g/ha, scored visually after 3 weeks vs untreated controls (100% = plants have died, 0% = like control plants)) of 90%, a pest or weed control at 20 g/ha ([13]; 20 g/ha) of 80% and a pest or weed control at 80 g/ha [26] of 80%. It also gave a pest or weed control at 20 g/ha ([14]; dosage 20 g/ha) of 100%, a pest or weed control at 80 g/ha [14] of 100% and a pest or weed control at 20 g/ha ([15]; dosage 20 g/ha) of 90%. The pest or weed control at 80 g/ha [15] was 100%, the pest or weed control at 20 g/ha [16] was 80% and the pest or weed control at 20 g/ha [18] was 80%. The pest or weed control at 80 g/ha [19] was 90%, the pest or weed control at 80 g/ha ([20]; dosage 80 g/ha) was 90% and the pest or weed control at 5 g/ha ([21]; dosage 5 g/ha) was 80%. For the same compound, the pest or weed control at 20 g/ha ([21]; dosage 20 g/ha) was 90%, the pest or weed control at 5 g/ha ([22]; dosage 5 g/ha) was 90% and the pest or weed control at 20 g/ha [22] was 90%. For the same compound, the pest or weed control at 80 g/ha [27] was 80%, the pest or weed control at 20 g/ha [23] was 80% and the pest or weed control at 80 g/ha [28] was 90%. For the same compound, the pest or weed control at 20 g/ha ([24]; 20 g/ha) was 80%.
